Results as given in US9783537B2, “3-(4-ethylnylphenyl) pyridopyrimidinone compounds and process for preparation thereof useful as potential anticancer agents” (Council of Scientific & Industrial Research, priority 2013, dated 2017).
Where two headings read alike, the source gives them in different places.

What was measured:
UO-31 = assay: SRB 48 h growth assay, Renal UO-31; format: cell-based, human; details: UO-31, Renal; for GI50 / CC50: Homo sapiens; for CC50: read-out: Log10 LC50 (converted)
NCI-H322M = assay: SRB 48 h growth assay, Non-small Cell Lung NCI-H322M; format: cell-based, human; details: for GI50 / CC50: Homo sapiens; for CC50: read-out: Log10 LC50 (converted)
U251 = assay: SRB 48 h growth assay, CNS U251; format: cell-based, human; details: for GI50 / CC50: Homo sapiens; for CC50: U-251, read-out: Log10 LC50 (converted)
OVCAR-5 = assay: SRB 48 h growth assay, Ovarian OVCAR-5; format: cell-based, human; details: OVCAR-5, Ovarian; for GI50 / CC50: Homo sapiens; for CC50: read-out: Log10 LC50 (converted)
T-47D = assay: SRB 48 h growth assay, Breast T-47D; format: cell-based, human; details: for GI50 / CC50: Homo sapiens, T47D; for CC50: read-out: Log10 LC50 (converted)
MOLT-4 = assay: SRB 48 h growth assay, Leukemia MOLT-4; format: cell-based, human; details: MOLT-4, Leukemia; for GI50 / CC50: Homo sapiens; for CC50: read-out: Log10 LC50 (converted)
HCC-2998 = assay: SRB 48 h growth assay, Colon HCC-2998; format: cell-based, human; details: HCC-2998, Colon; for GI50 / CC50: Homo sapiens; for CC50: read-out: Log10 LC50 (converted)
[1] = tested on: eight renal cancer cell line (786-0, A498, ACHN, CAKI-1, SN12C, TK-10, UO-31 and RXF 393); assay: in vitro anticancer activity, renal panel; format: cell-based; details: Homo sapiens; eight renal cancer cell lines, exposure at least 48 h; read-out: in vitro anticancer activity, range over panel
HT-29 = assay: SRB 48 h growth assay, Colon HT-29; format: cell-based, human; details: HT-29, Colon; for GI50 / CC50: Homo sapiens; for CC50: read-out: Log10 LC50 (converted)
COLO 205 = assay: SRB 48 h growth assay, Colon COLO 205; format: cell-based, human; details: COLO 205, Colon; for GI50 / CC50: Homo sapiens; for CC50: read-out: Log10 LC50 (converted)
MALME-3M = assay: SRB 48 h growth assay, Melanoma MALME-3M; format: cell-based, human; details: for GI50 / CC50: Homo sapiens; for CC50: read-out: Log10 LC50 (converted)
SR = assay: SRB 48 h growth assay, Leukemia SR; format: cell-based, human; details: for GI50 / CC50: Homo sapiens; for CC50: read-out: Log10 LC50 (converted)
HCT-15 = assay: SRB 48 h growth assay, Colon HCT-15; format: cell-based, human; details: HCT-15, Colon; for GI50 / CC50: Homo sapiens; for CC50: read-out: Log10 LC50 (converted)
SK-MEL-2 = assay: SRB 48 h growth assay, Melanoma SK-MEL-2; format: cell-based, human; details: SK-MEL-2, Melanoma; for GI50 / CC50: Homo sapiens; for CC50: read-out: Log10 LC50 (converted)
CAKI-1 = assay: SRB 48 h growth assay, Renal CAKI-1; format: cell-based, human; details: CAKI-1, Renal; for GI50 / CC50: Homo sapiens; for CC50: read-out: Log10 LC50 (converted)
[2] = read-out: Growth Inhibition GI50
[3] = read-out: Log10 GI50 (converted)
[4] = U-251, read-out: Growth Inhibition GI50
[5] = U-251, read-out: Log10 GI50 (converted)

For C#Cc1ccc(-n2c(/C=C/c3ccc(O)cc3)nc3ncccc3c2=O)cc1 [4b, (E)-3-(4-Ethynylphenyl)-2-(4-hydroxystyryl)pyrido[2,3-d]pyrimidin-4(3H)-one], the GI50 (UO-31; [2]) was 3790 nM, the GI50 (UO-31; [3]) was 3800 nM and the CC50 (UO-31) was > 100 µM. For the same compound, the “Log10 TGI50” value (UO-31) was −4.47, the “Log10 TGI50” value (NCI-H322M) was >−4.00 and the GI50 (NCI-H322M; [2]) was 5.58 µM. The GI50 (NCI-H322M; [3]) was 5.62 µM, the CC50 (NCI-H322M) was > 100 µM and the “Log10 TGI50” value (U251) was >−4.00. The GI50 (U251; [4]) was 4020 nM, the GI50 (U251; [5]) was 3980 nM and the CC50 (U251) was > 100 µM. The GI50 (OVCAR-5; [2]) was 32.3 µM, the GI50 (OVCAR-5; [3]) was 32.4 µM and the CC50 (OVCAR-5) was > 100 µM. For the same compound, the “Log10 TGI50” value (OVCAR-5) was >−4.00, the “Log10 TGI50” value (T-47D) was >−4.00 and the GI50 (T-47D; [2]) was 4.63 µM. The GI50 (T-47D; [3]) was 4.68 µM, the CC50 (T-47D) was > 100 µM and the GI50 (MOLT-4; [2]) was 7.35 µM. For the same compound, the GI50 (MOLT-4; [3]) was 7.41 µM, the CC50 (MOLT-4) was > 100 µM and the “Log10 TGI50” value (MOLT-4) was >−4.00. For the same compound, the “Log10 TGI50” value (HCC-2998) was >−4.00, the GI50 (HCC-2998; [2]) was 25.7 µM and the GI50 (HCC-2998; [3]) was 25.7 µM. For the same compound, the CC50 (HCC-2998) was > 100 µM, the GI50 [1] was 2.63 to 20.5 µM and the “Log10 TGI50” value (HT-29) was >−4.00. For the same compound, the GI50 (HT-29; [2]) was 52.8 µM, the GI50 (HT-29; [3]) was 52.5 µM and the CC50 (HT-29) was > 100 µM. For the same compound, the “Log10 TGI50” value (COLO 205) was >−4.00, the GI50 (COLO 205; [2]) was > 100000 nM and the GI50 (COLO 205; [3]) was > 100000 nM. For the same compound, the CC50 (COLO 205) was > 100 µM, the “Log10 TGI50” value (MALME-3M) was >−4.00 and the GI50 (MALME-3M; [2]) was 5.13 µM. The GI50 (MALME-3M; [3]) was 5.13 µM, the CC50 (MALME-3M) was > 100 µM and the “Log10 TGI50” value (SR) was >−4.00. The GI50 (SR; [2]) was 3540 nM, the GI50 (SR; [3]) was 3550 nM and the CC50 (SR) was > 100 µM. The “Log10 TGI50” value (HCT-15) was >−4.00, the GI50 (HCT-15; [2]) was 4.65 µM and the GI50 (HCT-15; [3]) was 4.68 µM. The CC50 (HCT-15) was > 100 µM, the GI50 (SK-MEL-2; [2]) was 3950 nM and the GI50 (SK-MEL-2; [3]) was 3980 nM. The CC50 (SK-MEL-2) was > 100 µM, the “Log10 TGI50” value (SK-MEL-2) was −4.39 and the “Log10 TGI50” value (CAKI-1) was >−4.00. For the same compound, the GI50 (CAKI-1; [2]) was 4.15 µM, the GI50 (CAKI-1; [3]) was 4.17 µM and the CC50 (CAKI-1) was > 100 µM.

C#Cc1ccc(-n2c(/C=C/c3ccc(C(F)(F)F)cc3)nc3ncccc3c2=O)cc1 [4c, (E)-3-(4-Ethynylphenyl)-2-(4-(trifluoromethyl)styryl)pyrido[2,3-d]pyrimidin-4(3H)-one] gave a GI50 (UO-31; [2]) of 1430 nM, a GI50 (UO-31; [3]) of 1450 nM and a CC50 (UO-31) of 9.33 µM. For the same compound, the “Log10 TGI50” value (UO-31) was −5.44, the “Log10 TGI50” value (NCI-H322M) was −5.15 and the GI50 (NCI-H322M; [2]) was 2.25 µM. For the same compound, the GI50 (NCI-H322M; [3]) was 2.24 µM, the CC50 (NCI-H322M) was 27.5 µM and the “Log10 TGI50” value (U251) was −5.50. For the same compound, the GI50 (U251; [4]) was 1670 nM, the GI50 (U251; [5]) was 1660 nM and the CC50 (U251) was 5.89 µM. The GI50 (OVCAR-5; [2]) was 1.94 µM, the GI50 (OVCAR-5; [3]) was 1.95 µM and the CC50 (OVCAR-5) was 6.61 µM. For the same compound, the “Log10 TGI50” value (OVCAR-5) was −5.45, the “Log10 TGI50” value (T-47D) was −5.30 and the GI50 (T-47D; [2]) was 2.02 µM. The GI50 (T-47D; [3]) was 2 µM, the CC50 (T-47D) was 28.2 µM and the GI50 (MOLT-4; [2]) was 3.01 µM. The GI50 (MOLT-4; [3]) was 3.02 µM, the CC50 (MOLT-4) was > 100 µM and the “Log10 TGI50” value (MOLT-4) was −5.06. For the same compound, the “Log10 TGI50” value (HCC-2998) was −5.46, the GI50 (HCC-2998; [2]) was 1.96 µM and the GI50 (HCC-2998; [3]) was 1.95 µM. For the same compound, the CC50 (HCC-2998) was 6.17 µM, the GI50 [1] was 1.69 to 4.08 µM and the “Log10 TGI50” value (HT-29) was −5.40. The GI50 (HT-29; [2]) was 2.03 µM, the GI50 (HT-29; [3]) was 2.04 µM and the CC50 (HT-29) was 7.76 µM. For the same compound, the “Log10 TGI50” value (COLO 205) was −5.35, the GI50 (COLO 205; [2]) was 2230 nM and the GI50 (COLO 205; [3]) was 2240 nM. For the same compound, the CC50 (COLO 205) was 8.91 µM, the “Log10 TGI50” value (MALME-3M) was −5.45 and the GI50 (MALME-3M; [2]) was 1.64 µM. For the same compound, the GI50 (MALME-3M; [3]) was 1.66 µM, the CC50 (MALME-3M) was 7.76 µM and the “Log10 TGI50” value (SR) was −5.09. For the same compound, the GI50 (SR; [2]) was 2000 nM, the GI50 (SR; [3]) was 2000 nM and the CC50 (SR) was > 100 µM. For the same compound, the “Log10 TGI50” value (HCT-15) was −5.43, the GI50 (HCT-15; [2]) was 1.74 µM and the GI50 (HCT-15; [3]) was 1.74 µM. For the same compound, the CC50 (HCT-15) was 7.76 µM, the GI50 (SK-MEL-2; [2]) was 2030 nM and the GI50 (SK-MEL-2; [3]) was 2040 nM. For the same compound, the CC50 (SK-MEL-2) was 8.32 µM, the “Log10 TGI50” value (SK-MEL-2) was −5.39 and the “Log10 TGI50” value (CAKI-1) was −5.21. For the same compound, the GI50 (CAKI-1; [2]) was 2.26 µM, the GI50 (CAKI-1; [3]) was 2.24 µM and the CC50 (CAKI-1) was > 100 µM.
